From patent US6479435B1, “Diaryl ethers and processes for their preparation and herbicidal and desiccant compositions containing them” (ISK Americas Incorporated, priority 1997, dated 2002)

Columns and labels:
Assay type in all cases: in vivo
[1] = tested on: lambsquarters (Chenopodium album, CHEAL); assay: Post-emerge greenhouse herbicide test, phytotoxicity rating; settings: 14 days after application
Outline: (§1)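 Scores use a 0 (no damage) to 100 (complete kill) scale, taken 14 days after a foliar spray. Acetone solutions with 0.25% v/v non-ionic surfactant were applied by track sprayer at 187 l/ha and 63-1000 g ai/ha to bottom-watered 2-3 leaf plants.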

[2] = tested on: barnyardgrass (Echinochloa crusgalli, ECHCG); assay: as above; settings: 14 days after application
Outline: as §1

[3] = tested on: ivyleaf morningglory (Ipomoea hederacea, IPOHE); assay: as above; settings: 14 days after application
Outline: as §1

[4] = tested on: Johnsongrass (Sorghum halepense, SORHA); assay: as above; settings: 14 days after application
Outline: as §1

[5] = tested on: redroot pigweed (Amaranthus retroflexus, AMARE); assay: as above; settings: 14 days after application
Outline: as §1

[6] = tested on: velvetleaf (Abutilon theophrasti, ABUTH); assay: as above; settings: 14 days after application
Outline: as §1

[7] = tested on: green foxtail (Setaria viridis, SETVI); assay: as above; settings: 14 days after application
Outline: as §1

[8] = tested on: large crabgrass (Digitaria sanguinalis, DIGSA); assay: as above; settings: 14 days after application
Outline: as §1

[9] = tested on: sicklepod (Cassia obtusifolia, CASOB); assay: as above; settings: 14 days after application
Outline: as §1

[10] = tested on: lambsquarters (Chenopodium album, CHEAL); assay: Pre-emerge greenhouse herbicide test, phytotoxicity rating; settings: 14 days after application, rating scale 0-100
Outline: (§2)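 Visual 0–100 injury rating (100 = all plants dead) taken 14 days after treatment. Rates of 125–1000 g ai/ha in acetone, 187 l/ha, were sprayed onto soil one day post-sowing; pots were surface-watered to incorporate, then bottom-watered.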

[11] = tested on: barnyardgrass (Echinochloa crusgalli, ECHCG); assay: as above; settings: 14 days after application, rating scale 0-100
Outline: as §2

[12] = tested on: ivyleaf morningglory (Ipomoea hederacea, IPOHE); assay: as above; settings: 14 days after application, rating scale 0-100
Outline: as §2

[13] = tested on: common ragweed (Ambrosia artemisiifolia L., AMBEL); assay: as above; settings: 14 days after application, rating scale 0-100
Outline: as §2

[14] = tested on: Johnsongrass (Sorghum halepense, SORHA); assay: as above; settings: 14 days after application, rating scale 0-100
Outline: as §2

[15] = tested on: redroot pigweed (Amaranthus retroflexus, AMARE); assay: as above; settings: 14 days after application, rating scale 0-100
Outline: as §2

[16] = tested on: velvetleaf (Abutilon theophrasti, ABUTH); assay: as above; settings: 14 days after application, rating scale 0-100
Outline: as §2

[17] = tested on: green foxtail (Setaria viridis, SETVI); assay: as above; settings: 14 days after application, rating scale 0-100
Outline: as §2

[18] = tested on: large crabgrass (Digitaria sanguinalis, DIGSA); assay: as above; settings: 14 days after application, rating scale 0-100
Outline: as §2

[19] = tested on: sicklepod (Cassia obtusifolia, CASOB); assay: as above; settings: 14 days after application, rating scale 0-100
Outline: as §2

[20] = tested on: common ragweed (Ambrosia artemisiifolia L., AMBEL); assay: Post-emerge greenhouse herbicide test, phytotoxicity rating; settings: 14 days after application
From the text: A standard greenhouse herbicide activity screening system was used to evaluate the herbicidal efficacy and crop safety of these test compounds. Six broadleaf weed species including redroot pigweed (Amaranthus retroflexus, AMARE), velvetleaf (Abutilon theophrasti, ABUTH), sicklepod (Cassia obtusifolia, CASOB), ivyleaf morningglory (Ipomoea hederacea, IPOHE), lambsquarters (Chenopodium album, CHEAL) and common ragweed (Ambrosia artemisiifolia L., AMBEL) were used as test species. Four grass weed species including green foxtail (Setaria viridis, SETVI), barnyardgrass (Echinochloa crusgalli, ECHCG), Johnsongrass (Sorghum halepense, SORHA), and large crabgrass (Digitaria sanguinalis, DIGSA) were also used. In addition, three crop species, field corn (Zea mays L., var. Dekalb 535, CORN), soybean (Glycine max L., var. Pella 86, SOY), and upland rice (Oryza sp., var.Tebonnet, RICE) were included.
All test compounds were dissolved in acetone and applied to the test units in a volume of 187 l/ha. […] Plants were arranged on a shelf so that the top of the canopy (post-emerge) or top of the soil surface (pre-emerge) was 40-45 cm below the nozzle. Pressurized air was used to force the test solution through the nozzle as it was mechanically advanced (via electrically driven chain drive) over the top of all test plants/pots. This application simulates a typical commercial field herbicide application.
In the post-emerge test, a commercial non-ionic surfactant was also included (0.25% v/v) to enhance wetting of the leaf surfaces Qf target plants at rates ranging from 63 g ai/ha to 1000 g ai/ha. For post-emerge tests, seeds were planted 8-21 days prior to the test to allow emergence and good foliage development prior to application of the test substances. At the time of the post-emerge application, plants of all species were usually at the 2-3 leaf stage of development. Post-emerge test units were always bottom-watered.
At 14 days after application of the test materials, phytotoxicity ratings were recorded. A rating scale of 0-100 was used as previously described in Research Methods in Weed Science, 2nd edition, B. Truelove, Ed., Southern Weed Science Society, Auburn University, Auburn, Ala., 1977. Briefly, “0” corresponds to no damage and “100” corresponds to complete death of all plants in the test unit. This scale was used both to determine efficacy against weed species and damage to crop species. Herbicide activity data for various compounds of this invention, which are shown by compound number in Tables 1-9, are shown in Tables 13 and 14.

Row | SMILES | CHEAL phytotoxicity rating (0-100) ([1]; 63 g al/ha) | CHEAL phytotoxicity rating (0-100) ([1]; 500 g al/ha) | ECHCG phytotoxicity rating (0-100) ([2]; 63 g al/ha) | ECHCG phytotoxicity rating (0-100) ([2]; 500 g al/ha) | IPOHE phytotoxicity rating (0-100) ([3]; 63 g al/ha) | IPOHE phytotoxicity rating (0-100) ([3]; 500 g al/ha) | SORHA phytotoxicity rating (0-100) ([4]; 63 g al/ha) | SORHA phytotoxicity rating (0-100) ([4]; 500 g al/ha) | AMARE phytotoxicity rating (0-100) ([5]; 63 g al/ha) | AMARE phytotoxicity rating (0-100) ([5]; 500 g al/ha) | ABUTH phytotoxicity rating (0-100) ([6]; 63 g al/ha) | ABUTH phytotoxicity rating (0-100) ([6]; 500 g al/ha) | SETVI phytotoxicity rating (0-100) ([7]; 63 g al/ha) | SETVI phytotoxicity rating (0-100) ([7]; 500 g al/ha) | DIGSA phytotoxicity rating (0-100) ([8]; 63 g al/ha) | DIGSA phytotoxicity rating (0-100) ([8]; 500 g al/ha) | CASOB phytotoxicity rating (0-100) ([9]; 63 g al/ha) | CASOB phytotoxicity rating (0-100) ([9]; 500 g al/ha) | phytotoxicity rating CHEAL ([10]; 125 g ai/ha) | phytotoxicity rating CHEAL ([10]; 500 g ai/ha) | further results
1 | COc1nc(OC)nc(Oc2cc(-c3nn(C)c(C(F)(F)F)c3Cl)c(F)cc2Cl)n1 [Compound 1-8, 4-chloro-3-(4-chloro-2-fluoro-5-(4,6-dimethoxy-2-triazinyloxy)phenyl)-1-methyl-5-trifluoromethyl-1H-pyrazole] | 0 | 95 | 0 | 0 | 10 | 80 | 0 | 10 | 20 | 100 | 0 | 35 | 50 | 20 | 0 | 20 | 0 | 10 | 0 | 100 | phytotoxicity rating ECHCG ([11]; 125 g ai/ha): 0; phytotoxicity rating ECHCG ([11]; 500 g ai/ha): 0; phytotoxicity rating IPOHE ([12]; 125 g ai/ha): 0; phytotoxicity rating IPOHE ([12]; 500 g ai/ha): 0; phytotoxicity rating AMBEL ([13]; 125 g ai/ha): 0; phytotoxicity rating AMBEL ([13]; 500 g ai/ha): 10; phytotoxicity rating SORHA ([14]; 125 g ai/ha): 0; phytotoxicity rating SORHA ([14]; 500 g ai/ha): 35; phytotoxicity rating AMARE ([15]; 125 g ai/ha): 70; phytotoxicity rating AMARE ([15]; 500 g ai/ha): 100; phytotoxicity rating ABUTH ([16]; 125 g ai/ha): 0; phytotoxicity rating ABUTH ([16]; 500 g ai/ha): 20; phytotoxicity rating SETVI ([17]; 125 g ai/ha): 50; phytotoxicity rating SETVI ([17]; 500 g ai/ha): 100; phytotoxicity rating DIGSA ([18]; 125 g ai/ha): 20; phytotoxicity rating DIGSA ([18]; 500 g ai/ha): 90; phytotoxicity rating CASOB ([19]; 125 g ai/ha): 0; phytotoxicity rating CASOB ([19]; 500 g ai/ha): 0; AMBEL phytotoxicity rating (0-100) ([20]; 63 g al/ha): 0; AMBEL phytotoxicity rating (0-100) ([20]; 500 g al/ha): 10
2 | COc1nc(OC)nc(Oc2cc(-c3nc(C)n(C(F)F)c3Cl)c(F)cc2Cl)n1 [Compound 2-4, 5-chloro-4-(4-chloro-2-fluoro-5-(4,6-dimethoxy-2-triazinyloxy)phenyl)-1-difluoromethyl-2-methylimidazole] | 0 | 70 | 0 | 0 | 0 | 75 | 0 | 50 | 0 | 90 | 0 | 80 | 0 | 50 | 0 | 10 | 0 | 0 | 70 | 100 | phytotoxicity rating ECHCG ([11]; 125 g ai/ha): 0; phytotoxicity rating ECHCG ([11]; 500 g ai/ha): 0; phytotoxicity rating IPOHE ([12]; 125 g ai/ha): 10; phytotoxicity rating IPOHE ([12]; 500 g ai/ha): 0; phytotoxicity rating AMBEL ([13]; 125 g ai/ha): 10; phytotoxicity rating AMBEL ([13]; 500 g ai/ha): 0; phytotoxicity rating SORHA ([14]; 125 g ai/ha): 0; phytotoxicity rating SORHA ([14]; 500 g ai/ha): 40; phytotoxicity rating AMARE ([15]; 125 g ai/ha): 70; phytotoxicity rating AMARE ([15]; 500 g ai/ha): 100; phytotoxicity rating ABUTH ([16]; 125 g ai/ha): 10; phytotoxicity rating ABUTH ([16]; 500 g ai/ha): 70; phytotoxicity rating SETVI ([17]; 125 g ai/ha): 20; phytotoxicity rating SETVI ([17]; 500 g ai/ha): 95; phytotoxicity rating DIGSA ([18]; 125 g ai/ha): 0; phytotoxicity rating DIGSA ([18]; 500 g ai/ha): 50; phytotoxicity rating CASOB ([19]; 125 g ai/ha): 0; phytotoxicity rating CASOB ([19]; 500 g ai/ha): 10; AMBEL phytotoxicity rating (0-100) ([20]; 63 g al/ha): 0; AMBEL phytotoxicity rating (0-100) ([20]; 500 g al/ha): 0
